Laboratory results taken from patent US9351986B2, “Calicheamicin derivative-carrier conjugates” (priority 2002, dated 2016).
Several values for one entry are separate records, joined by “and”; a condition that tells them apart may be missing. Equal values may be shown once.

Assays:
Fc-CD22 = assay: BIACORE blocking of murine anti-CD22 mAbs by G5/44 on immobilized Fc-CD22; assay type: binding; settings: Fc-CD22 saturated with G5/44 (100 μg/ml), before murine mAb
Protocol: Whether or not G5/44 can inhibit the binding of murine mAbs of known specificity to CD22 was evaluated by BIACORE™ analysis using Fc-CD22 immobilized to a BIACORE™ CM5 chip. The surface plasmon resonance units (RU) obtained with and without prior saturation of the immobilized Fc-CD22 with G5/44 were compared. Biomolecular interaction analysis was performed using a BIACORE™ 2000. Antibodies were passed over a blank control surface (flowcell 1, serves as a control, no protein was coupled) and the test surface of Fc-CD22 (flowcell 2) immobilized on a CM5 sensor chip via amine coupling chemistry to a level of 9,042 RU. The resultant sensorgram was the response (RU) on flowcell 2 minus the response (RU) on flowcell 1. A second sensorgram was obtained by first saturating the flowcells with G5/44 (100 μg/ml) before the introduction of murine mAbs against CD22 that had been previously characterized for their binding. Immediately upon measuring the G5/44 response, murine anti-CD22 mAbs were individually perfused without removing G544. The second combined response generated due to the binding of murine anti-CD22 mAb to G5/44-coated CD22 was also recorded. If the murine antibody bound to CD22 at sites unrelated to those occupied by G5/44, then the combined responses would be additive. […]

[1] = test system: CD22− CD33+ HL-60 leukemia cells; assay: Flow cytometry binding to HL-60 leukemia cells; settings: data not shown
Description: (§1) Purified human polyclonal IgG1 and IgG4 were also used as negative controls.

CD22 on B cells = assay: Species specificity of CD22 recognition on B cells; assay type: binding, human, murine, rat, canine, porcine, cynomolgus and rhesus; settings: data not shown
Description: as §1

RAMOS B-cell lymphoma = RAMOS B-cell lymphoma xenograft growth; assay type: in vivo; settings: FIG. 18
Description: In Vivo Cytotoxicity. CMC-544 made by the CMC-544 process was further evaluated in B-cell lymphoma xenografts. In these studies, two B-cell lymphoma tumors, RAMOS and RL, were used. RL lymphoma is a non-Burkitt's NHL-derived cell line whereas RAMOS was originally derived from a Burkitt's lymphoma.

RL NHL xenografts = RL NHL xenografts staged to 300-400 mg in nude mice; assay type: in vivo; settings: for MEAN RELATIVE TUMOR GROWTH: tumor mass at Week 3/day 1
Protocol: Similar studies were carried out using the RL lymphoma model. […] CMC-544 in a dose-dependent manner caused tumors to regress over a 3-week time frame. The minimally effective dose of CMC-544 in the RL lymphoma model was established from statistical analyses of these studies to be 20 μg/kg based on calicheamicin content. There were no deaths in any of these three studies.
The observed anti-tumor efficacy was dose-dependent as expected and there was no difference in the efficacies of either of the two CMC-544 preparations. […] However, it should be emphasized that for each dose of conjugated calicheamicin, the quantity of antibody protein administered in the form of a conjugate was four times higher for CMC-544 made by the CMA-676 process versus that made by the CMC-544 process. Since the calicheamicin content of the targeted conjugate is primarily responsible for causing the anti-tumor effect, it is possible to deliver the required quantity of calicheamicin via the conjugate made by the new procedure using much smaller quantities of the targeting antibody. The increased loading of the conjugate made by the CMC-544 process is, in effect, due to the lack of significant amounts of the low conjugated fraction (LCF).

large RAMOS lymphoma = assay: Large established RAMOS lymphoma xenografts; assay type: in vivo, nude mice; settings: days 1, 5 and 9
Protocol: (§2) The ability of CMC-544 made by the new procedure to inhibit growth of large established B-cell lymphoma xenografts using both the RAMOS and RL lymphoma models was also investigated. The tumors were allowed to grow and staged to 1.5 or 2 g of tumor mass after which CMC-544 or an isotype-matched negative control conjugate (CMA-676) were administered intraperitoneally at the dose of 160 μg/kg of conjugated calicheamicin keeping the original schedule of dosing on days 1, 5 and 9.
The same schedule of dosing was shown earlier to cause long lasting regression of small staged tumors (see Table 6).

RL lymphoma = assay: Large established RL lymphoma xenografts; assay type: in vivo, mice
Protocol: as §2
A similar experiment using CMC-544 was carried out in the RL lymphoma model. Intraperitoneal administration of CMC-544 at a dose of 160 μg/kg on a similar schedule as described before caused >90% regression of the pre-existing mass of RL lymphoma within 30 days. […] In a small number of studies not shown here, RL lymphomas that re-grew sporadically after the initial CMC-544-induced regression were retreated with CMC-544 again. […] Thus, the treatment with CMC-544 can be effective against both small and large masses of B-cell lymphomas with the potential for repeat therapy.

Ramos cells [2] = assay: Ramos cell viability, CMC-544 with and without rituximab, 96 hours; assay type: cell-based; settings: CMC-544 alone, calicheamicin DMH
Protocol: After 96 hours, cell viability was measured by propidium iodide exclusion analyzed by flow cytometry. […] The statistical analysis was conducted using the PROBIT procedure in SAS version 8.2.

Ramos cells [3] = assay: Disseminated RAMOS B lymphoma in SCID mice, developing model; assay type: in vivo; settings: Table 8; conjugates 160 μg/kg, rituximab 20 mg/kg ip Q4Dx3 from day 3
Protocol: (§3) Male SCID mice (CB17 SCID), 20-25 g, were injected with […] through the tail vein (0.2 ml). […] For the day 3 treatment schedule, mice were dosed on days 3, 7, and 11. For the day 9 treatment schedule, mice were dosed on days 9, 13 and 17. […] Mice were monitored daily for the presence of hind limb paralysis at which time they were killed. Seven to 10 mice per treatment group were used. The group average survival time (±SD), median, minimum, and maximum survival times were all calculated. The difference in survival distribution between groups was determined by using a nonparametric Log-rank test with significance reported at the 0.05 level. The survival curves were constructed using the Kaplan-Meier method.
(§4) The initial study examined the effect of two different dosing schedules on survival times of the SCID mice with the disseminated lymphoma. The first study looked at initiating drug dosing 3 days after the tumor cells were injected intravenously (developing model), while the second study delayed drug dosing until 9 days post tumor cell injection (established model).

Ramos cells [4] = assay: Disseminated RAMOS B lymphoma in SCID mice, established model; assay type: in vivo
Protocol: as §3
as §4, with “model). […]” for “model).”

RL B lymphoma xenograft = assay: Subcutaneous RL B lymphoma xenograft, CMC-544 versus rituximab and CHOP; assay type: in vivo, Balb/c nude mice; settings: IP, Q4Dx3, 160 μg/kg calicheamicin equivalents
Protocol: Female, athymic nude mice, 18-22 g, were given total body irradiation (400 rads). […] Three days after irradiation, mice were injected subcutaneously with 107 RL cells in […] ™ (Collaborative Biomedical Products, Belford, Mass., diluted 1:1 in RPMI medium) in the dorsal, right flank. […] The initial day of drug administration was considered day 1. Two additional doses were given on days 5 and 9 (treatment=q4Dx3). […] Tumors were measured at least once a week and calculated as tumor mass (g)=0.5 (tumor width/2) (tumor length). Group means SEM were calculated and compared to the vehicle-treated group for statistical significance using multiple T-tests. Group means were recorded up to 50 days or until either a mouse died (which disrupted the group mean) or the tumor grew too large (>3.5 g) and the mouse had to be euthanized. […] The number of tumor free mice at the end of each study for each treatment group was also recorded. […]
Individual components of the CHOP regimen were used at their respective maximum tolerated doses assessed in nude mice (data not reported) and were as follows: Cyclophosphamide (C) 40 mg/kg IP, doxorubicin (H) 3.3 mg/kg IP, vincristine (O) 0.5 mg/kg IP, and prednisone (P) 0.2 mg/kg PO. […]

[5] = Table 8, conjugates 160 μg/kg, rituximab 20 mg/kg ip Q4Dx3 from day 9
[6] = Table 9, high dose: CMC-544 160 μg/kg, rituximab 20 mg/kg, alone or combined
[7] = Table 10, high dose: CMC-544 160 μg/kg, rituximab 20 mg/kg, alone or combined
[8] = Table 10, low dose: CMC-544 40 μg/kg, rituximab 5 mg/kg, alone or combined
[9] = Table 10, medium dose: CMC-544 80 μg/kg, rituximab 10 mg/kg, alone or combined

Sequence of Fc-CD22 (P20273 20-416 limits assumed): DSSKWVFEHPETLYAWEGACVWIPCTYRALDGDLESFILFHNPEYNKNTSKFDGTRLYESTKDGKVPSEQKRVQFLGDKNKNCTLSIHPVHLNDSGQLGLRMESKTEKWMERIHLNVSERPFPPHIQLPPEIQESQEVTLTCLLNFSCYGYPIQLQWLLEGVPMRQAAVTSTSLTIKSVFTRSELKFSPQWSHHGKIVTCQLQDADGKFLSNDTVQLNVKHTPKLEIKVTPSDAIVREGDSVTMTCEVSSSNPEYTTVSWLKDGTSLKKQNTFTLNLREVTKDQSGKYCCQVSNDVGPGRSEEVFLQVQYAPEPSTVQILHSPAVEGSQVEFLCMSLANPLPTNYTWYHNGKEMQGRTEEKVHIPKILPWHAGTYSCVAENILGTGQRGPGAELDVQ

5/44: murine anti-CD22 monoclonal antibody, the murine parent of G5/44
Response 1 with G544 (Fc-CD22): 725.1 RU

CMC-544: G5/44-NAc-gamma-calicheamicin DMH AcBut conjugate; monomeric calicheamicin derivative/humanized anti-CD22 antibody (G5/44)
binding to HL-60 leukemia cells [1]: neither CMC-544 nor G5/44 demonstrated any binding
recognition of CD22 on B cells of different species (CD22 on B cells): specifically recognizes CD22 on human B cells, but not on murine, rat, canine, porcine or primate (cynomolgus and rhesus) B cells
inhibition of growth of RAMOS B-cell lymphoma (RAMOS B-cell lymphoma): efficacious in inhibiting, in a dose-dependent manner, the growth of RAMOS B-cell lymphoma
tumor regression at higher doses (RL NHL xenografts; 60-320 μg/kg): almost complete regression of RL lymphoma
minimally effective dose in the RL lymphoma model (RL NHL xenografts; based on calicheamicin content, from statistical analyses of three studies): 0.02 mg/kg
% T/C (RL NHL xenografts; calicheamicin dose 20 μg/kg): 43%
MEAN RELATIVE TUMOR GROWTH (RL NHL xenografts; calicheamicin dose 20 μg/kg): 2.87
% T/C (RL NHL xenografts; calicheamicin dose 40 μg/kg): 20%
MEAN RELATIVE TUMOR GROWTH (RL NHL xenografts; calicheamicin dose 40 μg/kg): 1.34
% T/C (RL NHL xenografts; calicheamicin dose 60 μg/kg): 9%
MEAN RELATIVE TUMOR GROWTH (RL NHL xenografts; calicheamicin dose 60 μg/kg): 0.58
% T/C (RL NHL xenografts; calicheamicin dose 80 μg/kg): 8%
MEAN RELATIVE TUMOR GROWTH (RL NHL xenografts; calicheamicin dose 80 μg/kg): 0.54
% T/C (RL NHL xenografts; calicheamicin dose 160 μg/kg): 3%
MEAN RELATIVE TUMOR GROWTH (RL NHL xenografts; calicheamicin dose 160 μg/kg): 0.21
% T/C (RL NHL xenografts; calicheamicin dose 320 μg/kg): 1%
MEAN RELATIVE TUMOR GROWTH (RL NHL xenografts; calicheamicin dose 320 μg/kg): 0.10
deaths (RL NHL xenografts; three independent experiments, 20-320 μg/kg): no deaths
tumor-free mice by day 20 (large RAMOS lymphoma; 160 μg/kg conjugated calicheamicin ip, tumors staged to 1.5 or 2 g): 3 out of 4
re-growth of regressed lymphoma up to day 50 (large RAMOS lymphoma; 160 μg/kg ip): did not indicate any re-growth
mice with re-growth of the tumors by day 45 (RL lymphoma; 160 μg/kg ip): 2
regression of the pre-existing mass of RL lymphoma (RL lymphoma; 160 μg/kg ip, within 30 days): > 90%
response of re-grown RL tumors to a second course (RL lymphoma; studies not shown): still responsive to the second course of the treatment with CMC-544 and regressed again
median inhibitory concentration (IC50) (Ramos cells [2]): 0.029 ng/mL
Average Survival Time (Ramos cells [3]): 41 days and 41.0 days
Maximum Survival Time (Ramos cells [3]): 60.0 days
Median Survival Time (Ramos cells [3]): 38.0 days
Minimum Survival Time (Ramos cells [3]): 32.0 days
mice still surviving at 125 days (Ramos cells [4]; CMC-544 40 μg/kg): 90%
Average Survival Time (Ramos cells [4]; [5]): 83.5 days
Median Survival Time (Ramos cells [4]; [5]): 76.5 days
Minimum Survival Time (Ramos cells [4]; [5]): 34.0 days
Maximum Survival Time (Ramos cells [4]; [6]): >100.0 days
Median Survival Time (Ramos cells [4]; [6]): 34.5 days
Minimum Survival Time (Ramos cells [4]; [6]): 27.0 days
Average Survival Time (Ramos cells [4]; Table 9 initial combination study, high dose: CMC-544 160 μg/kg, rituximab 20 mg/kg, alone or combined): 58.5 days
Average Survival Time (Ramos cells [4]; [7]): 85 days and 85.22 days
Maximum Survival Time (Ramos cells [4]; [7]): 125.00 days
Median Survival Time (Ramos cells [4]; [7]): 82.00 days
Minimum Survival Time (Ramos cells [4]; [7]): 35.00 days
Average Survival Time (Ramos cells [4]; [8]): 118.90 days
Maximum Survival Time (Ramos cells [4]; [8]): 125.00 days
Median Survival Time (Ramos cells [4]; [8]): 125.00 days
Minimum Survival Time (Ramos cells [4]; [8]): 64.00 days
Average Survival Time (Ramos cells [4]; [9]): 118.22 days
Maximum Survival Time (Ramos cells [4]; [9]): 125.00 days
Median Survival Time (Ramos cells [4]; [9]): 125.00 days
Minimum Survival Time (Ramos cells [4]; [9]): 71.00 days
antitumor effect (RL B lymphoma xenograft): complete and lasted throughout the experimental period
